# “Also recorded” adds a separate entry of the source.
# Experiments:
# [1] = test system: α-Mannosidase; type: biochemical; conditions: substrate incubated with α-Mannosidase
# [2] = test system: α-L-Fucosidase; type: biochemical; conditions: substrate incubated with α-L-Fucosidase
# [3] = test system: β-Glucuronidase; conditions: substrate incubated with β-Glucuronidase
# [4] = test system: membrane free soluble N1 NA (strain H5N1 A/Anhui/1/2005); type: biochemical, influenza virus
# [5] = test system: N2 NA (strain A/Babol/36/2005); assay: Electrochemical assay, 3 electrode system: SG1 cleavage and drug susceptibility; type: biochemical, influenza virus
# [6] = test system: H1N1 A/Brisbane/59/2007; assay: as above; type: biochemical, Influenza A virus
# [7] = test system: H3N2 A/Aichi/2/1968; assay: as above; type: biochemical, Influenza A virus
# [8] = test system: H3N2 A/HongKong/8/68; assay: as above; type: biochemical, Influenza A virus
# [9] = test system: bacterial NA (BNA) from Clostridium perfringens; type: biochemical
# [10] = Electrochemical assay, 3 electrode system: SG1 in PBS buffer without enzyme; conditions: SG1 0.5 mM in PBS buffer, no NA or virus
# [11] = test system: A/Wilson-Smith/1933 (H1N1); assay: Electrochemical assay using the printed electrodes; type: biochemical, Influenza A virus; conditions: 100 μL virus + 100 μL PBS buffer with SG1, 1 hour, 37° C.; 20 μL tested
# [12] = test system: A/PuertoRico/8/1934 (H1N1); assay: Electrochemical assay using the printed electrodes; type: biochemical, Influenza A virus; conditions: 100 μL virus + 100 μL PBS buffer with SG1, 1 hour, 37° C.; 20 μL tested
# [13] = test system: A/HongKong/8/1968 (H3N2); assay: Electrochemical assay using the printed electrodes; type: biochemical, Influenza A virus; conditions: 100 μL virus + 100 μL PBS buffer with SG1, 1 hour, 37° C.; 20 μL tested
# [14] = test system: A/Aichi/2/1968 (H1N1); assay: Electrochemical assay using the printed electrodes; type: biochemical, Influenza A virus
# [15] = test system: A/Beijing/262/1995 (H1N1); assay: Electrochemical assay using the printed electrodes; type: biochemical, Influenza A virus; conditions: 100 μL virus + 100 μL PBS buffer with SG1, 1 hour, 37° C.; 20 μL tested
# [16] = test system: A/Nanching/933/1995 (H3N2); assay: Electrochemical assay using the printed electrodes; type: biochemical, Influenza A virus; conditions: 100 μL virus + 100 μL PBS buffer with SG1, 1 hour, 37° C.; 20 μL tested
# [17] = test system: A/Sydney/5/1997 (H3N2); assay: Electrochemical assay using the printed electrodes; type: biochemical, Influenza A virus; conditions: 100 μL virus + 100 μL PBS buffer with SG1, 1 hour, 37° C.; 20 μL tested
# [18] = test system: A/New Caledonia/20/1999 (H1N1); assay: Electrochemical assay using the printed electrodes; type: biochemical, Influenza A virus
# [19] = test system: A/Solomon Islands/3/2006 (H1N1); assay: Electrochemical assay using the printed electrodes; type: biochemical, Influenza A virus; conditions: 100 μL virus + 100 μL PBS buffer with SG1, 1 hour, 37° C.; 20 μL tested
# [20] = test system: A/Uruguay/716/2007 (H3N2); assay: Electrochemical assay using the printed electrodes; type: biochemical, Influenza A virus; conditions: 100 μL virus + 100 μL PBS buffer with SG1, 1 hour, 37° C.; 20 μL tested
# [21] = test system: A/Brisbane/59/2007 (H1N1); assay: Electrochemical assay using the printed electrodes; type: biochemical, Influenza A virus; conditions: 100 μL virus + 100 μL PBS buffer with SG1, 1 hour, 37° C.; 20 μL tested
# [22] = test system: A/California/07/2009 (H1N1); assay: Electrochemical assay using the printed electrodes; type: biochemical, Influenza A virus; conditions: 100 μL virus + 100 μL PBS buffer with SG1, 1 hour, 37° C.; 20 μL tested
# [23] = test system: A/New York/18/2009 (H1N1); assay: Electrochemical assay using the printed electrodes; type: biochemical, Influenza A virus; conditions: 100 μL virus + 100 μL PBS buffer with SG1, 1 hour, 37° C.; 20 μL tested
# [24] = test system: A/San Diego/1/2009 (H1N1); assay: Electrochemical assay using the printed electrodes; type: biochemical, Influenza A virus; conditions: 100 μL virus + 100 μL PBS buffer with SG1, 1 hour, 37° C.; 20 μL tested
# [25] = test system: A/Wisconsin/629-D02452/2009 (H1N1); assay: Electrochemical assay using the printed electrodes; type: biochemical, Influenza A virus; conditions: 100 μL virus + 100 μL PBS buffer with SG1, 1 hour, 37° C.; 20 μL tested
# [26] = test system: A/Wisconsin/15/2009 (H3N2); assay: Electrochemical assay using the printed electrodes; type: biochemical, Influenza A virus; conditions: 100 μL virus + 100 μL PBS buffer with SG1, 1 hour, 37° C.; 20 μL tested
# [27] = test system: A/Brownsville/31H/2009 (H1N1); assay: Electrochemical assay using the printed electrodes; type: biochemical, Influenza A virus; conditions: 100 μL virus + 100 μL PBS buffer with SG1, 1 hour, 37° C.; 20 μL tested
# [28] = test system: A/Victoria/361/2011 (H3N2); assay: Electrochemical assay using the printed electrodes; type: biochemical, Influenza A virus; conditions: 100 μL virus + 100 μL PBS buffer with SG1, 1 hour, 37° C.; 20 μL tested
# [29] = Electrochemical assay using the printed electrodes, SG1 without virus; conditions: No virus + SG1 (negative control)
# [30] = test system: β-Galactosidase; conditions: substrate incubated with β-Galactosidase
# [31] = SG1 0.5 mM, 2 hours, 23° C., PBS buffer
# [32] = 100 μL UV inactivated virus, 1 hour
# [33] = 0.5 mM SG1, compared with one hour for most strains
# [34] = 100 μL virus + 100 μL PBS buffer with SG1, 1 hour, 37° C., 20 μL tested
# [35] = 10 ng antiviral premixed 30 min before SG1
smiles,measurement,setting,value
"O=C(O)C1O[C@@H](Oc2ccc(CO[C@@H]3OC(CO)[C@@H](O)[C@H](O)C3O)cc2)C(O)[C@@H](O)[C@@H]1O (stereo partly drawn) [Substrate 22, 1-(4-Hydroxymethylphenyl)-β-D-glucopyronuronic acid-1-α/β-D-glucopyranoside]","i, value of electrochemical assay",[1],12.3 ± 1.2 10^−8 A
same,"i, value of electrochemical assay",[2],9.7 ± 3.5 10^−8 A
same,"i, value of electrochemical assay",[3],65.1 ± 4.6 10^−8 A
"CC(=O)N[C@H]1[C@H]([C@H](O)[C@H](O)CO)O[C@@](OC[C@H]2OC(O)[C@H](O)[C@@H](O)[C@@H]2O)(C(=O)O)C[C@@H]1O (stereo partly drawn) [SG1, 5-acetamido-3,5-dideoxy-D-glycero-α-D-galacto-non-2-ulopyranosylonate-(2→6)-α,β-D-gluco pyranoside]",cleavage of SG1 / glucose release,[4]; [31],complete cleavage; also recorded: Glucose was released
same,cleavage of SG1 / glucose release,[5]; [31],complete cleavage; also recorded: Glucose was released
same,matrix effect on cleavage of SG1,[6],does not affect the cleavage
same,cleavage of SG1 / glucose release,[6]; [32],"cleave SG1, releasing glucose; also recorded: Glucose was released"
same,cleavage of SG1 / glucose release,[7]; [32],"cleave SG1, releasing glucose; also recorded: Glucose was released"
same,cleavage of SG1 / glucose release,[8]; [32],"cleave SG1, releasing glucose; also recorded: Glucose was released"
same,cleavage of SG1 / glucose release,"[9]; bacterial NA, no antiviral",cleaves SG1 to release glucose
same,glucose release in the absence of enzymes,[10],no glucose released
same,Electrochemical assay (current),[11],99.5 ± 4.4 ×10^−8 A
same,Electrochemical assay (current),[12],13.4 ± 2.0 ×10^−8 A
same,Electrochemical assay (current),[13],64.4 ± 5.2 ×10^−8 A
same,time to completely cleave SG1,[14]; [33],require longer time to completely cleave SG1
same,Electrochemical assay (current),[14]; [34],31.3 ± 5.3 ×10^−8 A
same,Electrochemical assay (current),[15],118.1 ± 11.6 ×10^−8 A
same,Electrochemical assay (current),[16],15.1 + 2.8 ×10^−8 A
same,Electrochemical assay (current),[17],115.7 ± 4.3 ×10^−8 A
same,time to completely cleave SG1,[18]; [33],require longer time to completely cleave SG1
same,Electrochemical assay (current),[18]; [34],17.7 ± 2.6 ×10^−8 A
same,Electrochemical assay (current),[19],79.7 ± 5.0 ×10^−8 A
same,Electrochemical assay (current),[20],132.4 ± 6.3 ×10^−8 A
same,Electrochemical assay (current),[21],106.2 ± 5.1 ×10^−8 A
same,Electrochemical assay (current),[22],13.4 + 1.5 ×10^−8 A
same,Electrochemical assay (current),[23],74.4 ± 5.6 ×10^−8 A
same,Electrochemical assay (current),[24],108.5 ± 12.0 ×10^−8 A
same,Electrochemical assay (current),[25],98.9 ± 5.7 ×10^−8 A
same,Electrochemical assay (current),[26],107.8 ± 5.9 ×10^−8 A
same,Electrochemical assay (current),[27],91.7 ± 9.7 ×10^−8 A
same,Electrochemical assay (current),[28],94.5 ± 2.3 ×10^−8 A
same,Electrochemical assay (current),[29],3.6 ± 2.2 ×10^−8 A
CC(=O)N[C@H]1[C@H]([C@H](O)[C@H](O)CO)OC(C(=O)O)=C[C@@H]1N=C(N)N [Zanamivir],inhibition of NA (glucose release from SG1) by antiviral,[4]; [35],completely inhibited
same,inhibition of NA (glucose release from SG1) by antiviral,[5]; [35],completely inhibited
same,inhibition of NA (glucose release from SG1) by antiviral,[6]; [35],completely inhibited; also recorded: Glucose was not released
same,inhibition of NA (glucose release from SG1) by antiviral,[7]; [35],completely inhibited; also recorded: Glucose was not released
same,inhibition of NA (glucose release from SG1) by antiviral,[8]; [35],completely inhibited; also recorded: Glucose was not released
same,inhibition of bacterial NA (glucose release from SG1) by antiviral,"[9]; antiviral premixed with bacterial NA, then SG1",NA still cleaved SG1; also recorded: glucose was released
OCC1O[C@@H](OCc2ccc(O[C@@H]3OC(CO)[C@H](O)[C@H](O)C3O)cc2)C(O)[C@@H](O)[C@@H]1O (some centres unmarked) [Substrate 21],"i, value of electrochemical assay",[30],77.9 ± 7.3 10^−8 A
same,"i, value of electrochemical assay",[3],10.4 ± 1.3 10^−8 A
CC1O[C@@H](Oc2ccc(CO[C@@H]3OC(CO)[C@@H](O)[C@H](O)C3O)cc2)C(O)[C@@H](O)[C@@H]1O (some centres unmarked) [Substrate 26],"i, value of electrochemical assay",[2],25.2 ± 2.9 10^−8 A

# Reference: patent US10408783B2, “Electrochemical methods and compounds for the detection of enzymes” (GEORGIA STATE UNIVERSITY RESEARCH FOUNDATION, INC., priority 2014, dated 2019)
